System: lactic acid bacteria strains
Assay: Growth of lactic acid bacteria strains on media containing selenate or selenite
Assay type: cell-based, lactic acid bacteria from gastrointestinal tracts of chicken
Details: 250 ppm in media
Experimental: Putative strains of LAB were grown on MRS agar plates containing various concentrations of selenate and selenite.

Row | Compound | Number of lactic acid bacteria strains grown (percentage of bacterial cells that grew) (incubation time 12 h) [percentage] | Number of lactic acid bacteria strains grown (percentage of bacterial cells that grew) (incubation time 24 h) [percentage] | Number of lactic acid bacteria strains grown (percentage of bacterial cells that grew) (incubation time 48 h) [percentage] | Number of lactic acid bacteria strains grown (percentage of bacterial cells that grew) (incubation time >48 h) [percentage]
1 | O=[Se](O)O [Selenite, sodium selenite] | 62.9 | 2.1 | 24.7 | 10.3
2 | O=[Se](=O)([O-])[O-].[Na+].[Na+] [Selenate, sodium selenate] | 75.3 | 14.4 | 10.3 | 0

— US20070077238A1, “Production of organic and inorganic selenium compounds by lactic acid bacteria” (priority 2005, published 2007)
